Data from patent publication US20220072131A1, “Dihydroxyphenyl Neurotransmitter Compounds, Compositions And Methods” (Auspex Pharmaceuticals, Inc., priority 2013, published 2022).

Tests used:
anesthetized rats = test: Change of mean arterial blood pressure in anesthetized rats following intravenous administration; format: in vivo, rat; conditions: 2 mg/kg, in comparison to the same dose of L-threo-DOPS
Method: Change of Mean Arterial Blood Pressure in Anesthetized Rats Following Intravenous Administration of 2 mg/kg L-Threo-2,3-Dideutero POPS in Comparison to the Same Dose of L-Threo-DOPS

[1] = target: T1, monoamine oxidase-A (MAO-A) (Homo sapiens, UniProt P21397); test: In vitro monoamine oxidase A degradation assay; format: in vitro ADME; conditions: incubated with MAO-A; compared to non-deuterated norepinephrine; disappearance of norepinephrine tracked
T1 sequence (P21397 1-527): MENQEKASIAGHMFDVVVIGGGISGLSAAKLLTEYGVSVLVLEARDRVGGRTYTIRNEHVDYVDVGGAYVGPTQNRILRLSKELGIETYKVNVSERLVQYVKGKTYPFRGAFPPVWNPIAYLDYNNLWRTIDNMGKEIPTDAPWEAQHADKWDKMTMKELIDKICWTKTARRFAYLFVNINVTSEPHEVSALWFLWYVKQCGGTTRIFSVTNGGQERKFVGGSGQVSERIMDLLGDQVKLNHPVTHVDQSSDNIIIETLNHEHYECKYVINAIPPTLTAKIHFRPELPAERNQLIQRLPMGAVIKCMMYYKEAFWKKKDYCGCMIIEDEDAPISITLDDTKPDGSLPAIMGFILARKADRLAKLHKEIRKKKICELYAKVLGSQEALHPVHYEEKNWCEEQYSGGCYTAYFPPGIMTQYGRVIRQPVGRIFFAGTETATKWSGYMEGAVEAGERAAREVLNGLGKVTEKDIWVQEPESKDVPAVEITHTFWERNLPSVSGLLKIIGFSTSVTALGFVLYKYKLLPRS
Method: Norepinephrine and d6-norepinephrine were incubated with monoamine oxidase-A (MAO-A).
The appearance of 3,4-dihydroxyphenylglycolaldehyde and the disappearance of norepinephrine were tracked. Compared to non-deuterated norepinephrine, d6-norepinephrine was associated with about a 5-fold decrease in digestion by MAO-A and about a 75% decrease in 3,4-dihydroxyphenylglycolaldehyde production.
The assay method is a batch alumina extraction followed by liquid chromatography with electrochemical detection. The post-column electrodes are arranged in series, with an oxidizing potential at the first electrode and reducing potential at the third. This series arrangement of flow-through electrodes reduces the solvent front substantially and improves the sensitivity and specificity for detecting reversibly oxidized species such as catechols. 3,4-Dihydroxyphenylglycolaldehyde is identified by a broad, short peak within the solvent front.

## [2H]C(N)(C(=O)O)C([2H])(O)c1ccc(O)c(O)c1 [L-threo-2,3-dideutero DOPS]
Anesthetized rats
  Change of mean arterial blood pressure: enhanced and prolonged increase

## [2H]c1c([2H])c([C@@]([2H])(O)C([2H])([2H])N)c([2H])c(O)c1O [d6-norepinephrine]
[1]
  decrease in digestion by MAO-A: ~5 fold
